Results published in publication PMC10970923, “In Vitro Evaluation of Essential Oils and Saturated Fatty Acids for Repellency against the Old-World Sand Fly, Phlebotomus papatasi (Scopoli) (Diptera: Psychodidae)” (Insects, 2024).
Read-outs that look alike come from different tables or passages of the source.

Target: T1, rPpAChE1 (recombinant acetylcholinesterase of P. papatasi) (Phlebotomus papatasi, UniProt M1F887)
T1 construct: gene AChE
Assay: residual AChE activity from initial velocities
Format: biochemical
Source text: residual AChE activity from initial velocities on rPpAChE1 (recombinant acetylcholinesterase of P. papatasi)

T1 sequence (M1F887 41-710): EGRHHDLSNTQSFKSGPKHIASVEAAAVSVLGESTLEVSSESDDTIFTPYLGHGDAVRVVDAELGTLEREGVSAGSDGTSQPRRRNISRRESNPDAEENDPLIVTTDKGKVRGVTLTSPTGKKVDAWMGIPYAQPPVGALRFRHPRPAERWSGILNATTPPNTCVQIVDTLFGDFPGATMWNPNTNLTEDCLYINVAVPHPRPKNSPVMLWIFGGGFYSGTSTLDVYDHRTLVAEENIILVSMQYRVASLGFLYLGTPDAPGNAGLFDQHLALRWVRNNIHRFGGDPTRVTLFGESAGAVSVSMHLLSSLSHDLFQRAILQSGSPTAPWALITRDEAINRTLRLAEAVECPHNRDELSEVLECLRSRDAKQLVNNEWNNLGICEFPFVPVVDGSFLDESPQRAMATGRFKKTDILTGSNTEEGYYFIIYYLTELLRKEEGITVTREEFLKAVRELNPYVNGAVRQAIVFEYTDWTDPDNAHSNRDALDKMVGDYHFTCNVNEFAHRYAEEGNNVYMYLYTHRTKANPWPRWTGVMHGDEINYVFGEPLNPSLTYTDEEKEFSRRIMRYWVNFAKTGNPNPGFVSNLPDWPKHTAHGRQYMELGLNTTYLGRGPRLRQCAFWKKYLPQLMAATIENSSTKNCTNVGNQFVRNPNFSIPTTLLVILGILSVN

Q: How did the remaining activity at 1000 µM (read-out: % Residual rPpAChE1 Activity (Compared to No Inhibitor) ± Std. Dev. ^* / Undecanoic Acid) turn out when `CCCCCCCCCCC(=O)O` [Undecanoic acid] was run?
A: 98.2 ± 0.4%

Q: For `CCCCCCCCC(=O)O` [Nonanoic acid], which remaining activity at 1000 µM (read-out: % Residual rPpAChE1 Activity (Compared to No Inhibitor) ± Std. Dev. ^* / Nonanoic Acid) is on record?
A: 96 ± 2.3%

Q: `CCCCN(CCC(=O)OCC)C(C)=O` [IR3535] was tested. Which remaining activity at 1000 µM (read-out: % Residual rPpAChE1 Activity (Compared to No Inhibitor) ± Std. Dev. ^* / IR3535) did it give?
A: 104 ± 5%

Q: With `CCN(CC)C(=O)c1cccc(C)c1` [DEET, N,N-diethyl-m-toluamide] as the compound, how does the remaining activity at 1000 µM (read-out: % Residual rPpAChE1 Activity (Compared to No Inhibitor) ± Std. Dev. ^* / DEET) read?
A: 93.2 ± 1.4%
